Measurements from patent US20240373851A1, “PEST CONTROL COMPOSITION AND PEST CONTROL METHOD” (SUMITOMO CHEMICAL COMPANY, LIMITED, priority 2021, published 2024).

Legend:
Assay type in all cases: in vivo
[1] = system: German cockroaches (Blattella germanica); assay: Test Example 3: control test against German cockroaches, spray in chamber; conditions: adult German cockroaches; 1.5 mL sprayed; concentration [%]: broflanilide 0.02, imiprothrin 0.01, cyfluthrin 0.0016, alone or mixed; 420 minutes after spraying
Text: Next, the usefulness of the inventive composition for controlling pests will be indicated by Test Examples.
(hereinafter referred to as expected value A)
(hereinafter referred to as expected value B)
In a plastic cup (diameter: 12.4 cm, height: 10.2 cm) lined with a filter paper, ten adult German cockroaches (Blattella germanica) (five males and five females each) were released, and the plastic cup was placed in the center of the bottom of a box-shaped chamber (46 cm×46 cm×70 cm in height). From the height of 60 cm, 1.5 mL of each of formulations prepared by dissolving a single agent of any one of broflanilide, imiprothrin and cyfluthrin, or a mixed agent of two or more thereof in a mixture of isopropyl alcohol and Isopar M at a mixing ratio of 1:9 was sprayed under a spray pressure of 0.041 MPa. After a lapse of 420 minutes from spraying, the number of dead and moribund individuals was examined, and moribund and mortal rates (%) were determined by the above equation 3. The test was performed through two replicates. Dead individuals are completely immobile individuals, and moribund individuals are individuals who cannot get up when turned on their backs.

[2] = system: German cockroaches (Blattella germanica); assay: Test Example 8: control test against German cockroaches, spray in chamber; conditions: adult German cockroaches; 1.5 mL sprayed; concentration [%]: nicofluprole 0.01, imiprothrin 0.01, phenothrin 0.1, alone or mixed; 45 minutes after spraying
Protocol: (§1) Next, the usefulness of the inventive composition for controlling pests will be indicated by Test Examples. In general, the control effect to be expected when treated with a mixture obtained by mixing given two or three types of active ingredient compounds is determined by the Colby's calculation equation represented by the following [Equation 1] and [Equation 2].
(§2) [formula] • P: moribund and mortal rates (%) when treated with an active ingredient compound X in the concentration of m [ppm] • Q: moribund and mortal rates (%) when treated with an active ingredient compound Y in the concentration of n [ppm] • EA: moribund and mortal rates (%) when treated with an active ingredient compound X in the concentration of m [ppm] and an active ingredient compound Y in the concentration of n [ppm] (hereinafter referred to as expected value A) […]
(§3) Regarding the synergistic effect of three types of the active ingredient compounds, in case where the moribund and mortal rates (%) when actually treated with a mixture obtained by mixing three types of the active ingredient compounds exceed the expected value A calculated by using the moribund and mortal rates (%) when actually treated with a mixture obtained by mixing two types of the active ingredient compounds among three types thereof, and the moribund and mortal rates (%) calculated when actually treated the remaining one type of the active ingredient compound, or the expected value B (%) calculated from the moribund and mortal rates (%) when actually treated with each of three types of the active ingredient compounds alone, it was determined that the synergistic effect exists. […]

[3] = system: German cockroaches (Blattella germanica); assay: Test Example 6: control test against German cockroaches, spray in chamber; conditions: adult German cockroaches; 1.5 mL sprayed; concentration [%]: isocycloseram 0.05, imiprothrin 0.01, lambda-cyhalothrin 0.0025, alone or mixed; 60 minutes after spraying
Protocol: as §1, §2, §3

C#CCN1CC(=O)N(COC(=O)[C@@H]2C(C=C(C)C)C2(C)C)C1=O (mixture of isomers) [Imiprothrin, imiprothrin]
Moribund and mortal rates [%] after 420 minutes [1]: 15% | Moribund and mortal rates [%] after 45 minutes [2]: 65% | Moribund and mortal rates [%] after 60 minutes [3]: 25%
